Test results taken from the CheMixHub viscosity set.

Assay: xn = mol fraction of the nth substance listed

CN1CCC[C@H]1c1cccnc1 + CCCCO
100 kPa
Conditions	viscosity [mPa·s]
298.15 K, x1 = 0.3931	3.155
303.15 K, x1 = 0.7	3.205
313.15 K, x1 = 0.1	1.885

CCOC(=O)CCC(=O)OCC + O=C1CCCO1
Conditions	viscosity [mPa·s]
298.15 K, 101 kPa, x2 = 0.95	1.745

OCCCl + Cc1ccccc1N
viscosity [mPa·s], 100 kPa
Conditions	x2 = 0.1141	x2 = 0.2148	x2 = 0.3201	x2 = 0.4123	x2 = 0.5121	x2 = 0.6225	x2 = 0.7112	x2 = 0.8184	x2 = 0.9017
303.15 K	2.67	2.744	2.82	2.884	2.953	3.026	3.084	3.151	3.202
308.15 K	2.312	2.378	2.445	2.502	2.562	2.626	2.676	2.734	2.777
313.15 K	1.963	2.031	2.099	2.157	2.219	2.285	2.337	2.396	2.44
318.15 K	1.645	1.711	1.777	1.834	1.893	1.958	2.008	2.067	2.108

CCOC(=O)CCC(=O)OCC + CCCCCCO
293.15 K, 100 kPa
Conditions	viscosity [mPa·s]
x1 = 0.4999	2.495
x1 = 0.7999	2.495

OCCCO + C1COCCO1
viscosity [mPa·s], 100 kPa
Conditions	x2 = 0.0996	x2 = 0.2019	x2 = 0.2972	x2 = 0.3986	x2 = 0.4989	x2 = 0.5998	x2 = 0.6951	x2 = 0.8062	x2 = 0.9159
293.15 K	38.51	26.36	17.15	10.05	5.655	3.887	2.715	2.018	1.288
298.15 K	29.32	20.14	12.96	8.427	4.847	3.375	2.402	1.806	1.145
303.15 K	23.39	15.44	10.21	6.477	4.086	2.968	2.14	1.632	1.053

NC=O + CC(=O)O
viscosity [mPa·s]
Conditions	298.15 K	303.15 K	308.15 K	313.15 K
101 kPa, x1 = 0.109	2.001	–	–	1.462
101 kPa, x1 = 0.2105	2.855	–	–	2.029
101 kPa, x1 = 0.3058	3.481	–	–	2.361
101 kPa, x1 = 0.4011	3.864	–	–	2.589
101 kPa, x1 = 0.5018	4.217	–	–	2.791
101 kPa, x1 = 0.5944	4.341	–	–	2.904
101 kPa, x1 = 0.7026	4.316	–	–	2.903
101 kPa, x1 = 0.7961	4.146	–	–	2.899
101 kPa, x1 = 0.9038	3.824	–	–	2.589
101.33 kPa, x1 = 0.0782	1.54	1.39	1.28	1.19
101.33 kPa, x1 = 0.1552	2.07	1.84	1.68	1.54
101.33 kPa, x1 = 0.2319	2.63	2.3	2.09	1.89
101.33 kPa, x1 = 0.3049	3.11	2.71	2.43	2.19
101.33 kPa, x1 = 0.3832	3.54	3.06	2.73	2.45
101.33 kPa, x1 = 0.4595	3.85	3.32	2.95	2.65
101.33 kPa, x1 = 0.5395	4.04	3.52	3.08	2.81
101.33 kPa, x1 = 0.6155	4.02	3.5	3.1	2.77
101.33 kPa, x1 = 0.6939	3.97	3.49	3.08	2.75
101.33 kPa, x1 = 0.7683	3.83	3.4	2.97	2.67
101.33 kPa, x1 = 0.8477	3.57	3.1	2.79	2.53
101.33 kPa, x1 = 0.9228	3.36	2.94	2.65	2.4

OCCCO + OCCO
viscosity [mPa·s], 101 kPa
Conditions	x2 = 0.111	x2 = 0.2019	x2 = 0.359	x2 = 0.4612	x2 = 0.5502	x2 = 0.6262	x2 = 0.7342	x2 = 0.8289	x2 = 0.9111
298.15 K	39.52	37.55	34.13	31.81	–	–	24.96	22.36	19.9
303.15 K	31.57	29.96	27.17	25.33	23.65	22.16	19.81	17.71	15.79
308.15 K	25.57	24.22	21.94	20.45	19.09	17.92	16.08	14.42	12.89
